Assays:
[1] = test system: Walker tumor; settings: cited from earlier work
[2] = test system: Walker tumor; settings: rat, in vivo; cited from earlier work
[3] = test system: tumors; settings: by itself; cited from earlier work
[4] = test system: P. berghei; settings: high doses of PABA, protocol of Rollo
[5] = cited from earlier work
[6] = test system: burn wounds; settings: burn therapy; cited from earlier work
[7] = in water; cited from earlier work
[8] = test system: Yoshidia sarcoma and other tumors; settings: Connors et al.; cited from earlier work

## N[C@@H](Cc1ccc(N(CCCl)CCCl)cc1)C(=O)O [melphalan]
[1]
  effectiveness against the tumor: very effective against the tumor
[2]
  ratio of concentration between the Walker tumor and the liver: 1:5

## Nc1ccc(S(=O)(=O)Nc2ncccn2)cc1 [sulfadiazine]
[3]
  anti-tumor activity: not an anti-tumor agent
[4]
  inhibition of activity by PABA: significantly inhibited by PABA
[5]; free acid
  solubility of free acid: insoluble as a free acid
[5]; ionized
  solubility when ionized: very soluble when ionized

## Nc1ccc(S(=O)(=O)Nc2ncccn2)cc1 [sodium sulfadiazine]
[6]
  reaction with body fluids / consumption: would be used up rapidly and none would be left after a few days
[5]; water-soluble
  solubility: water-soluble

## Nc1ccc(S(=O)(=O)Nc2nccs2)cc1 [sulfathiazole]
[7]
  pKa: 7.1
[8]
  selective concentration in other transplanted animal tumors: do not concentrate selectively in these tumors

## Nc1ccc(S(=O)(=O)Nc2cnccn2)cc1 [sulfapyrazine]
[7]
  pKa: 6.0
[2]
  selective deposition/concentration in Walker tumor: selectively deposited in the tumor regions

From patent US4020150A (priority 1974, dated 1977)
